Laboratory results: patent publication US6407316B1, “Method of increasing foreign protein expression” (priority 1997, dated 2002)

What was measured:
Roundup Ready® Cotton [1] = assay: Fruiting of Roundup Ready Cotton, insecticide at planting, Roundup at six-leaf stage; format: in vivo; settings: for % change from UTC (Squares per Plant) / Squares per Plant: 40 days after Roundup treatment; for % change from UTC (Square & Bolls) / Square & Bolls: after 57 days
Method: (§1) A plot of Roundup Ready® Cotton (RRC was grown up. One part of the plot was treated with Temik® at a rate of 5.6 kg/ha of commercial product at the time of planting of the seed. Another part was treated with Disyston® (disulfoton) at 22.24 kg of commercial product/ha the time of planting of the seed. Another part of the plot was grown from seed treated with Gauch® (imidactoprid) at a rate of 0.357 kg of commercial product per 100 kg of seed. One part of the plot was left untreated by an insecticide which is called hereafter the untreated check (UTC).
Roundup Ready® Cotton was grown up as in Example 5 and treated with Roundup at the six-leaf stage.
The following results were observed 40 days after the Roundup® treatment:
After 57 days, many of the square had matured to bolls.

Roundup Ready® Cotton [2] = assay: Fruiting of Roundup Ready Cotton, insecticide at planting, Roundup at four-leaf stage; format: in vivo; settings: for % change from UTC (Squares per Plant) / Squares per Plant / % change from UTC (Squares + Bolls) / Squares + Bolls: Roundup at four-leaf stage; for % change from UTC (Squares per Plant) / Squares per Plant: 45 days after Roundup treatment; for % change from UTC (Squares + Bolls) / Squares + Bolls: after 62 days
Method: as §1
The isopropylamine salt of glyphosate was applied to all the cotton plants at the four-leaf stage in the form of the commercial product Roundup® at a rate of 32 oz of commercial product per acre (=[…] of active ingredient). The following results were observed 45 days after the Roundup® treatment:
After 62 days, many squares had matured to bolls and the following observations were made: […]

Heliothis virescens = assay: Bt cotton tissue incorporated into Heliothis diet, pupation bioassay (EC50P); format: in vivo; settings: aldicarb at plant, tissue collected after 90 days
Method: Cotton leaves and squares were collected from treatments of Bt Cotton wherein the cotton was treated with Temik® 15G under the following conditions;
A) 0.45 lbs active ingredient per acre at plant (0.5 kg/ha)
B) […] active ingredient per acre at plant; […] and
C) 0.75 lbs active ingredient per acre (0.84 kg/ha) at plant and followed 3 weeks later by a side-dress treatment of 1.0 lbs per acre (1.12 kg/ha) of active ingredient.
One planting was not treated with aldicarb.
After 90 days leaves and squares were collected, washed with soap and water, allowed to dry, washed with acetone, allowed to dry and finally washed with chloroform. The tissues were then freeze dried, ground in a mortar and pestle and stored at room temperature.
The cotton tissues were incorporated into a Heliothis diet and fed to Heliothis virescens. The larvae in the cups were weighed at seven days after infestation and the number of pupae were counted 14 and 21 days after infestation. The percent pupation was calculated at the different concentrations and the EC50P (the amount of tissue per liter of diet that reduced pupation by 50%) was calculated for each insecticide treatment to express the amount of toxin activity in the treatment.

bollworm = assay: Bollworm damage on field-grown NuCotn 32B after side-dress aldicarb; format: in vivo; settings: Temik 15G side-dress 7.8 kg/ha commercial product; after a full growing season
Excerpt: (§2) Seeds of NuCotn® 32B are planted in a field. Aldicarb, in the form of the commercial product Temik® 15G (a 15% weight/weight granular formulation) is applied as a side-dress at 7.8 kg/ha of commercial product. […] The amount of damage due to bollworm attack on the cotton is less in those treated with aldicarb in comparison to those not treated with aldicarb.

NuCotn® 32B = assay: Number of bolls on field-grown NuCotn 32B after side-dress aldicarb; format: in vivo, cotton; settings: Temik 15G side-dress 7.8 kg/ha commercial product; after a full growing season
Excerpt: as §2

delta-endotoxin = assay: Delta-endotoxin level in tissues of field-grown NuCotn 32B after in-furrow aldicarb; format: in vivo, cotton (NuCotn® 32B); settings: Temik 15G in furrow, about 0.5 kg/ha active ingredient; various points in the growing season
Method: Seeds of NuCotn® 32B are planted in a field. Aldicarb, in the form of the commercial product Temik® 15G (a 15% weight/weight granular formulation) is applied in the furrow that comprises the seed at a rate of about 0.5 kg/ha of active ingredient or 3.3 kg/ha of commercial product. At various points in the growing season, the plant tissues are tested for the levels of the delta-endotoxin.

CCOP(=S)(OCC)SCCSCC [disulfoton]
% change from UTC (Squares per Plant) (Roundup Ready® Cotton [1]): −36% | Squares per Plant (Roundup Ready® Cotton [1]): 5.65 | % change from UTC (Square & Bolls) (Roundup Ready® Cotton [1]): +14% | Square & Bolls (Roundup Ready® Cotton [1]): 16.5 | % change from UTC (Squares per Plant) (Roundup Ready® Cotton [2]): +2% | Squares per Plant (Roundup Ready® Cotton [2]): 7.65 | % change from UTC (Squares + Bolls) (Roundup Ready® Cotton [2]): −15.0% | Squares + Bolls (Roundup Ready® Cotton [2]): 12.8

CNC(=O)ON=CC(C)(C)SC [aldicarb, 2-methyl-2-(methylthio)propionaldehyde O-(methylcarbamoyl)oxime]
amount of tissue to reduce pupation by 50% (EC50P) vs untreated check (Heliothis virescens; leaf tissue, reading three weeks after infestation): higher amounts of tissue | amount of tissue to reduce pupation by 50% (EC50P) vs untreated check (Heliothis virescens; leaf tissue, reading two weeks after infestation): higher amounts of tissue | amount of tissue to reduce pupation by 50% (EC50P) vs untreated check (Heliothis virescens; square tissue, reading three weeks after infestation): lesser amounts of tissue | amount of tissue to reduce pupation by 50% (EC50P) vs untreated check (Heliothis virescens; square tissue, reading two weeks after infestation): lesser amounts of tissue | % change from UTC (Squares per Plant) (Roundup Ready® Cotton [1]): +23% | Squares per Plant (Roundup Ready® Cotton [1]): 10.95 | % change from UTC (Square & Bolls) (Roundup Ready® Cotton [1]): +11% | Square & Bolls (Roundup Ready® Cotton [1]): 16.0 | amount of damage due to bollworm attack vs not treated (bollworm): less | number of bolls on the plants vs not treated (NuCotn® 32B): larger number of bolls | % change from UTC (Squares per Plant) (Roundup Ready® Cotton [2]): +21% | Squares per Plant (Roundup Ready® Cotton [2]): 9.05 | % change from UTC (Squares + Bolls) (Roundup Ready® Cotton [2]): +18.7% | Squares + Bolls (Roundup Ready® Cotton [2]): 18.7 | yield of cotton compared with UTC or cotton treated with other pesticides (Roundup Ready® Cotton [2]; herbicide at the four-leaf stage, summary of Example 5): increases the yield of cotton | level of the delta-endotoxin in plant tissues vs plants not treated (delta-endotoxin): higher level of the endotoxin

O=[N+]([O-])N=C1NCCN1Cc1ccc(Cl)nc1 [imidacloprid, 1-(6-chloro-3-pyridylmethyl)-N-nitroimidazolidin-2-ylideneamine]
% change from UTC (Squares per Plant) (Roundup Ready® Cotton [1]): −14% | Squares per Plant (Roundup Ready® Cotton [1]): 7.60 | % change from UTC (Square & Bolls) (Roundup Ready® Cotton [1]): +14% | Square & Bolls (Roundup Ready® Cotton [1]): 16.5 | % change from UTC (Squares per Plant) (Roundup Ready® Cotton [2]): +18% | Squares per Plant (Roundup Ready® Cotton [2]): 8.70 | % change from UTC (Squares + Bolls) (Roundup Ready® Cotton [2]): −0.2% | Squares + Bolls (Roundup Ready® Cotton [2]): 14.8
